Activity calls are given as the source filed them. The calls are words filed in the database; no cut-off is given here.

The target of one assay is Lactoylglutathione lyase (Homo sapiens, UniProt Q04760). The assay can be described thus: Inhibition of human recombinant glyoxalase 1 assessed as S-D-lactoylglutathione after 15 mins by spectrophotometric analysis.
The subject of assay [1] is HL-60. The assay can be described thus: Antiproliferative activity against human HL60 cells at up to 100 uM after 48 hrs by MTS assay. Type of assay: functional, cell-based. A general note: Tetrazolium dyes change colour on reduction, which living cells bring about.
The test system of assay [2] is HL-60. Description: Antiproliferative activity against human HL60 cells after 24 hrs by MTS assay. Particulars: HL-60, 24 h. It counts as functional, cell-based.
The subject of assay [3] is HL-60. Description: Antiproliferative activity against human HL60 cells after 48 hrs by MTS assay. It counts as functional, cell-based.
Assay [4] has as its system HL-60. Description: Antiproliferative activity against human HL60 cells at up to 100 uM by MTS assay. Type of assay: functional, cell-based. The following applies: TDE = time-dependent effect.
In assay [5] the test system is HL-60. The assay can be described thus: Induction of apoptosis in human HL60 cells assessed as nucleosomal DNA fragmentation at up to 100 uM using ethidium bromide staining by agarose gel electrophoresis. It counts as functional, cell-based. Particulars: TDE = time-dependent effect.
The test system of assay [6] is HL-60. Description: Induction of apoptosis in human HL60 cells assessed as nucleosomal DNA fragmentation after 48 hrs using ethidium bromide staining by agarose gel electrophoresis. Type of assay: functional, cell-based.

Chain of Lactoylglutathione lyase (Q04760 whole entry): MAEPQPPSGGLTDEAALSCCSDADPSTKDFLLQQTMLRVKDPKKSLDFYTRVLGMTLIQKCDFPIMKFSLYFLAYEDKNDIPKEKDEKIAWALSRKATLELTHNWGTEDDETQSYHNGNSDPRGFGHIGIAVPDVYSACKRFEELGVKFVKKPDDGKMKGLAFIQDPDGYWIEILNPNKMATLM

In general, IC50 refers to the midpoint of a concentration-inhibition curve. Regarding `Oc1cc(O)c2cc(O)c(-c3ccc(O)c(O)c3)[o+]c2c1` [CYANIDIN CHLORIDE], at Lactoylglutathione lyase, the IC50 was 11.7 µM. Moreover, the result in the assay with HL-60 [1] was Active.

Regarding `Oc1cc(O)c2cc(O)c(-c3cc(O)c(O)c(O)c3)[o+]c2c1` [DELPHINIDIN CHLORIDE], the IC50 was determined as 1.9 µM on Lactoylglutathione lyase; 80 µM in the assay with HL-60 [2]; 40 µM in the assay on HL-60 [3] (HL-60, 48 h). The Activity result in the assay on HL-60 [3] is “Dose-dependent effect”; with HL-60 [4], “tde”; in the assay with HL-60 [5], “tde”; in the assay with HL-60 [6], “Dose-dependent effect”.

As to `Oc1ccc(-c2[o+]c3cc(O)cc(O)c3cc2O)cc1` [PELARGONIDIN CHLORIDE], the IC50 at Lactoylglutathione lyase stood at 16.4 µM. Besides, in the assay on HL-60 [1], the result was Active.

Values taken from ChEMBL document CHEMBL1250526, “Delphinidin, a dietary anthocyanidin in berry fruits, inhibits human glyoxalase I” (Bioorg Med Chem, 2010).
